Data from patent US8791143B2, “Anthranilic diamide derivatives having cyclic side-chains” (priority 2010, dated 2014).
Where two headings read alike, the source gives them in different places.

Assays:
[1] = log P by HPLC on reversed-phase columns (EEC Directive 79/831 Annex V.A8); assay type: physicochemical
[2] = tested on: caterpillars of the armyworm (Spodoptera frugiperda); assay: Spodoptera frugiperda test (SPODFR spray treatment); assay type: in vivo; details: Spodoptera frugiperda, 168 h, read-out: activity in % (caterpillars killed)
[3] = tested on: larvae of the mustard beetle (Phaedon cochleariae); assay: Phaedon test (PHAECO spray treatment); details: Phaedon cochleariae, 168 h, read-out: activity in % (beetle larvae killed)
[4] = reversed-phase C18 HPLC column, pH 2.7, HPLC reversed-phase C18, acidic range pH 2.7 (HCOOH), only or first value of the cell, read-out: log P
[5] = application rate 100 g/ha, after 7 days

SMILES | chromatographic logP [1, 4] | chromatographic logP ([1]; pH 2.7, log P) | further results
O=C(NC1COC1)c1cc(Cl)cc(Cl)c1NC(=O)c1cc(Cn2nnc(C(F)(F)F)n2)nn1-c1ncccc1Cl [Example 5] |  | 2.79 | pest or weed control at 100 g/ha [2]: 100%; pest or weed control at 100 g/ha [3]: 100%
Cc1cc(Cl)cc(C(=O)NC2COC2)c1NC(=O)c1cc(Cn2nc(C(F)(F)F)nc2C(F)(F)F)nn1-c1ncccc1Cl [Example 8] |  | 3.24 | pest or weed control at 100 g/ha [2]: 100%; pest or weed control at 100 g/ha [3]: 100%
Cc1cc(Cl)cc(C(=O)NC2COC2)c1NC(=O)c1cc(Cn2nnc(C(F)F)n2)nn1-c1ncccc1Cl [Example 16] |  | 2.37 | pest or weed control at 100 g/ha [2]: 100%
Cc1cc(C#N)cc(C(=O)NC2COC2)c1NC(=O)c1cc(Cn2nnc(C(F)F)n2)nn1-c1ncccc1Cl [Example 17] |  | 2.05 | pest or weed control at 100 g/ha [2]: 83%
O=C(NC1COC1)c1cc(Cl)cc(Cl)c1NC(=O)c1cc(Cn2nnc(C(F)F)n2)nn1-c1ncccc1Cl [Example 19] |  | 2.37 | pest or weed control at 100 g/ha [2]: 100%
Cc1cc(Cl)cc(C(=O)NC2CCN(C)CC2)c1NC(=O)c1cc(Cn2nnc(C(F)(F)F)n2)nn1-c1ncccc1Cl [Example 55] |  | 4.14 | pest or weed control at 100 g/ha [2]: 100%
Cc1cc(C#N)cc(C(=O)NC2CCN(C)CC2)c1NC(=O)c1cc(Cn2nnc(C(F)(F)F)n2)nn1-c1ccccc1Cl [Example 59] | 1.79 |  | 
Cc1cc(Cl)cc(C(=O)NCC2CCCO2)c1NC(=O)c1cc(Cn2nnc(C(F)(F)F)n2)nn1-c1ncccc1Cl (stereo not shown) [Example 60] |  | 3.25 | pest or weed control at 100 g/ha [2]: 100%
Cc1cc(Cl)cc(C(=O)NCc2ccccc2)c1NC(=O)c1cc(Cn2nnc(CCC(F)(F)F)n2)nn1-c1ncccc1Cl [Example 79] |  | 3.56 | 
Cc1cc(I)cc(C(=O)NCc2ccccc2)c1NC(=O)c1cc(Cn2nnc(CCC(F)(F)F)n2)nn1-c1ncccc1Cl [Example 80] |  | 3.78 | 
Cc1ccc(CNC(=O)c2cc(Cl)cc(C)c2NC(=O)c2cc(Cn3nnc(C(F)(F)F)n3)nn2-c2ncccc2Cl)cc1 [Example 90] |  | 4.08 | pest or weed control at 100 g/ha [2]: 100%
Cc1cc(C#N)cc(C(=O)NCc2ccccc2)c1NC(=O)c1cc(Cn2nnc(CCC(F)(F)F)n2)nn1-c1ncccc1Cl [Example 130] | 3.21 |  | pest or weed control at 100 g/ha [3]: 100%
Cc1cc(Cl)cc(C(=O)NCc2ccccc2)c1NC(=O)c1cc(Cn2nnnc2CCC(F)(F)F)nn1-c1ncccc1Cl [Example 131] |  | 3.2 | 
Cc1cc(I)cc(C(=O)NCc2ccccc2)c1NC(=O)c1cc(Cn2nnnc2CCC(F)(F)F)nn1-c1ncccc1Cl [Example 133] |  | 3.45 | 
Cc1cc(I)cc(C(=O)NCc2ccccc2)c1NC(=O)c1cc(Cn2nc(C(F)(F)F)c(C(F)(F)F)n2)nn1-c1ncccc1Cl [Example 135] | 4.75 |  | 
Cc1cc(C#N)cc(C(=O)NCc2ccccc2OC(F)(F)F)c1NC(=O)c1cc(Cn2nnc(C(F)F)n2)nn1-c1ncccc1Cl [Example 162] | 3.37 |  | pest or weed control at 100 g/ha [3]: 100%
Cc1cc(C#N)cc(C(=O)NCc2ccccc2OC(F)F)c1NC(=O)c1cc(Cn2nnc(C(F)(F)F)n2)nn1-c1ncccc1Cl [Example 179] | 3.55 |  | 
Cc1ccc(Cl)c(C(=O)NCc2ccc(Cl)cc2)c1NC(=O)c1cc(Cn2nnc(C(F)(F)F)n2)nn1-c1ncccc1Cl [Example 198] |  | 3.68 | 
Cc1ccc(Cl)c(C(=O)NCc2ccc(OC(F)(F)F)cc2)c1NC(=O)c1cc(Cn2nnc(C(F)(F)F)n2)nn1-c1ncccc1Cl [Example 201] | 3.93 |  | 
O=C(NCc1ccccc1Cl)c1cc2ccccc2c(Cl)c1NC(=O)c1cc(Cn2nnc(C(F)(F)F)n2)nn1-c1ncccc1Cl [Example 218] | 4.1 |  | 
O=C(NCc1cccc(Cl)c1)c1cc2ccccc2c(Cl)c1NC(=O)c1cc(Cn2nnc(C(F)(F)F)n2)nn1-c1ncccc1Cl [Example 219] | 4.13 |  | 
O=C(NCc1ccccc1OC(F)(F)F)c1cc2ccccc2c(Cl)c1NC(=O)c1cc(Cn2nnc(C(F)(F)F)n2)nn1-c1ncccc1Cl [Example 221] | 4.36 |  | pest or weed control at 100 g/ha [2, 5]: 100%
O=C(NCc1ccc(OC(F)(F)F)cc1)c1cc2ccccc2c(Cl)c1NC(=O)c1cc(Cn2nnc(C(F)(F)F)n2)nn1-c1ncccc1Cl [Example 223] | 4.36 |  | pest or weed control at 100 g/ha [2, 5]: 100%
Cc1ccc(CNC(=O)c2cc(Cl)cc(C)c2NC(=O)c2cc(Cn3nnc(C(F)(F)F)n3)nn2-c2ncccc2Cl)nc1C [Example 227] |  | 2.1 | pest or weed control at 100 g/ha [2]: 100%

Second part, led by results:

chromatographic logP [1, 4] | SMILES | chromatographic logP ([1]; pH 2.7, log P) | further results
2.64 | Cc1cc(C#N)cc(C(=O)NC2CS(=O)(=O)CC2O)c1NC(=O)c1cc(Cn2nnc(C(F)(F)F)n2)nn1-c1ccccc1Cl (stereo not shown) [Example 53] |  | 
3.74 | Cc1ccc(CNC(=O)c2cc(C#N)cc(C)c2NC(=O)c2cc(Cn3nnc(C(F)(F)F)n3)nn2-c2ccccc2Cl)cc1 [Example 78] |  | pest or weed control at 100 g/ha [2, 5]: 100%
2.84 | Cc1cc(C#N)cc(C(=O)NCc2ccccc2)c1NC(=O)c1cc(Cn2nnnc2CCC(F)(F)F)nn1-c1ncccc1Cl [Example 132] |  | 
4.66 | Cc1cc(Cl)cc(C(=O)NC(C)c2cc(Cl)cc(Cl)c2)c1NC(=O)c1cc(Cn2nnc(C(F)(F)F)n2)nn1-c1ncccc1Cl (stereo not shown) [Example 145] |  | 
4.36 | Cc1cc(I)cc(C(=O)NCc2cccc(OC(F)(F)F)c2)c1NC(=O)c1cc(Cn2nnc(C(F)(F)C(F)(F)F)n2)nn1-c1ncccc1Cl [Example 147] |  | pest or weed control at 100 g/ha [3]: 100%
3.42 | Cc1cc(Cl)cc(C(=O)NCc2cccc(OC(F)F)c2)c1NC(=O)c1cc(Cn2nnc(C(F)F)n2)nn1-c1ncccc1Cl [Example 176] |  | 
3.07 | Cc1cc(C#N)cc(C(=O)NCc2ccccc2OC(F)F)c1NC(=O)c1cc(Cn2nnc(C(F)F)n2)nn1-c1ncccc1Cl [Example 177] |  | 
4.46 | Cc1cc(C#N)cc(C(=O)NCc2ccc(OC(F)(F)F)cc2)c1NC(=O)c1cc(Cn2nnc(C(F)(F)F)n2)nn1-c1c(Cl)cccc1Cl [Example 181] |  | pest or weed control at 100 g/ha [2, 5]: 100%
3.92 | Cc1ccc(Cl)c(C(=O)NCc2ccccc2OC(F)(F)F)c1NC(=O)c1cc(Cn2nnc(C(F)(F)F)n2)nn1-c1ncccc1Cl [Example 199] |  | 
3.94 | Cc1ccc(Cl)c(C(=O)NCc2cccc(OC(F)(F)F)c2)c1NC(=O)c1cc(Cn2nnc(C(F)(F)F)n2)nn1-c1ncccc1Cl [Example 200] |  | 
4.11 | O=C(NCc1ccc(Cl)cc1)c1cc2ccccc2c(Cl)c1NC(=O)c1cc(Cn2nnc(C(F)(F)F)n2)nn1-c1ncccc1Cl [Example 220] |  | 
4.38 | O=C(NCc1cccc(OC(F)(F)F)c1)c1cc2ccccc2c(Cl)c1NC(=O)c1cc(Cn2nnc(C(F)(F)F)n2)nn1-c1ncccc1Cl [Example 222] |  | pest or weed control at 100 g/ha [2, 5]: 100%
2.94 | CCCc1cccc(CNC(=O)c2cc(Cl)cc(C)c2NC(=O)c2cc(Cn3nnc(C(F)(F)F)n3)nn2-c2ncccc2Cl)n1 [Example 229] |  | pest or weed control at 100 g/ha [3]: 100%
3.94 | Cc1cc(Cl)cc(C(=O)NCc2cc3ccccc3nc2Cl)c1NC(=O)c1cc(Cn2nnc(C(F)(F)F)n2)nn1-c1ncccc1Cl [Example 237] |  | 
